Where two headings read alike, the source gives them in different places.
Legend:
HTLV-1 [1] = assay: MT-2-Jurkat cell-to-cell HTLV-1 infection, proviral load by qPCR; assay type: cell-based; conditions: HTLV-1 infection of Jurkat T cells
Protocol: Six of the most promising compounds were selected for assessment of their efficacy in inhibiting HTLV-1 viral infection. To this end, we employed an MT-2-Jurkat co-culture relying on cell-to-cell-based HTLV-1 transmission, which we successfully used in a previous study. In this assay format, the infection of Jurkat cells is measured via real-time quantitative PCR (qPCR) determination of the proviral load (PVL). […] A block in the integration reaction was confirmed by Alu-qPCR experiments (Supplementary Fig. 6). […] We suspect this is owing to a more efficient uptake of BIC than RAL by Jurkat T cells.
MT-2 and E6.1 Jurkat T-cell lines (ATCC) were used for the experiments. The cells were cultured at 37 °C with 5% CO2 and maintained in Roswell Park Memorial Institute (RPMI) media supplemented with 10% fetal bovine serum (FBS), 100 U penicillin, 100 μg/mL streptomycin and 0.25 μg/mL fungizone.
The HTLV-1 cell-to-cell infection was performed as previously described; Jurkat T cells were counted and diluted in complete RPMI to a final concentration of 0.25 × 10^6 cells/ml and pre-treated with INSTI drugs (final concentration ranging from 0.2 pM to 2 μM) or DMSO as a control for 24 h. MT-2 cells were resuspended in RPMI at a concentration of 2 × 10^6 cells/ml and subjected to a nonlethal γ-radiation dose of 400 Gy. Cells were resuspended at a concentration of 2 × 10^6 cells/ml in serum-free RPMI supplemented with the corresponding INSTI drug. Co-culture of 0.5 × 10^6 for each cell line was carried out for 16 h, after which cells were washed in PBS and resuspended in 1 ml of depletion buffer (PBS, 0.1% FBS and 2 mM EGTA). MT-2 cells were depleted from the culture by means of anti-CD25 magnetic beads (DynabeadsTM CD25, Thermo Fisher). Depletion efficiency was confirmed via flow cytometry as described previously. Jurkat cells were cultured for 2 weeks in complete RPMI supplemented with the drugs and genomic DNA was extracted (DNeasy kit, Qiagen) and stored at −20 °C for subsequent analysis. All the experiments were done in triplicate.
The PVL was measured as previously described[9],[53],[54]. Jurkat genomic DNA was quantified and diluted to a concentration of 5 ng/μL. Real-time qPCR analysis were conducted on 20 ng of gDNA to measure the level of HTLV-1 tax and gapdh genes (Supplementary Table 5). For the standard curve, the gDNA from an HTLV-1 naturally infected T-cell clone (clone 11.50, courtesy of professor Charles Bangham), which has one copy of tax and two of gapdh, was used. The integrated provirus copy number was calculated as follows: (tax copy numbers)/(2×gapdh copy number)[53], and normalised to the DMSO-treated control which was set to 100%. The PVL data were fitted to a dose–response curve in Prism 7 and the EC50 was calculated. Alu-PCR was performed as previously described in ref. [55]. In brief, the first PCR reaction was done with Phusion polymerase starting from 80 ng of gDNA using the ALU-specific primers (Alu-F/Gag-R). The nested PCR was run diluting the amplificated product 1:50. The reaction was done as a qPCR using Gag-specific primers (Gag-R/Gag-F) and the Luna SYBR dye reaction mix (New England Biolabs). The integrated provirus copy numbers were normalised to GAPDH and Jurkat cells treated with DMSO and infected with HTLV-1 were set to 100%. Experiments were done in triplicate.

STLV-1 intasome = assay: EMSA of stability (retention) of assembled STLV-1 intasome; conditions: three hours of incubation with the drug
Protocol: The donor DNA (vDNA) that mimics the 3′-processed LTR of STLV-1 DNA was preassembled by annealing Atto-680-labelled MarB43_U5_S30UP and MarB43_U5_S30B oligonucleotides (Supplementary Table 4) in 100 mM Tris pH 7.4, 400 mM NaCl. In all, 16 μg of STLV-1 IN or its mutants were co-incubated with 38.4 μg of LEDGF/ΔIBD-B56γ at 4 °C for 30 min to allow binding. Samples were then supplemented with 0.5 μL 20 μM Atto680-labelled vDNA, and sufficiently diluted to give a final NaCl concentration of 60 mM. This was immediately placed in a 37 °C heating block for 10 min. The sample was then returned to room temperature (RT) and any precipitate was resolubilised by the addition of NaCl to a final concentration of 1.2 M. After equilibration of the samples at RT for 10 min, the samples were either immediately supplemented with 10 μg/mL heparin or, where stated, were incubated further or additional reagents/INSTIs were added, as described. Samples, supplemented with 10 μg/mL heparin, devoid of loading dye were carefully loaded onto a 3% low melting point agarose gel containing 10 μg/mL heparin and electrophoresed, avoiding overheating. Densitometry analysis was carried out in ImageJ v1.50i. Measurements from at least three independent experiments were taken. Standard deviations and p values were calculated in Prism 9.
Supplementary Figure 10 | STLV-1 IN A219E binds more B56g and stabilises the deltaretroviral intasome. a, Pulldown of LEDGF/ΔIBD-B56γ by wild type His6-STLV-1 IN and its mutants. Mutations introduced in the IN:B56 binding interface can strengthen the interaction. b, A219E-mutated STLV-1 IN increases the amount of intasome assembled in vitro in an EMSA assay, compared to wild type IN. Values are normalised to wild type STLV-1 IN. c, EMSA study of the effect of addition of BIC on the stability (retention) of the assembled STLV-1 intasome after three hours of incubation with the drug. Values shown represent percentage of intasome retained as compared to intasome assayed by EMSA straight after assembly. Averages and standard deviations are shown for two independent biological replicates. Primary data from pull-down assays and EMSA is also included below each panel. The red arrow indicates the intasome band. INSTI, integrase strand transfer inhibitor. Source data are provided as a Source Data File.
(1 picture or pasted object on this page, not shown here)

recombinant HTLV-1 IN = biological target: T1, recombinant HTLV-1 IN (Human T-cell leukemia virus 1, UniProt P03362); conditions: previously obtained values, read-out: HTLV-1 IN strand transfer IC50, cited from earlier work
T1 construct: made in house

HIV-1 = HIV-1 infection model; supplementary ref 18; read-out: HIV-1 EC50 ± stdev; cited from earlier work
HTLV-1 [2] = conditions: cited from earlier work
[3] = biological target: 6xHis-tagged STLV-1 MarB43 integrase A219E (simian T-cell lymphotropic virus type 1 (STLV-1), isolate MarB43); assay: pull-down
[4] = biological target: STLV-1 IN(A219E) as assembled into the intasome for cryo-EM (simian T-cell lymphotropic virus type 1 (STLV-1), isolate MarB43); assay: cryo-EM structure

With `O=C(NCc1c(F)cc(F)cc1F)c1cn2c(c(O)c1=O)C(=O)N1[C@H]3CC[C@H](C3)O[C@@H]1C2` [Bictegravir] the “improvement in EC50 compared with RAL” value (HTLV-1 [1]) was 20 fold, the “percentage of intasome retained” value (STLV-1 intasome; 1 uM, Replicate 1) was 54.7791% and the “percentage of intasome retained” value (STLV-1 intasome; 1 uM, Replicate 2) was 56.5068%. The “percentage of intasome retained” value (STLV-1 intasome; 50 uM, Replicate 1) was 73.5691%, the “percentage of intasome retained” value (STLV-1 intasome; 50 uM, Replicate 2) was 117.429% and the “percentage of intasome retained” value (STLV-1 intasome; 50 uM, Replicate 3) was 83.837%. The IC50 (recombinant HTLV-1 IN; Replicate 1) was 163 nM, the IC50 (recombinant HTLV-1 IN; Replicate 2) was 136 nM and the IC50 (recombinant HTLV-1 IN; Replicate 3) was 212 nM. The EC50 (HIV-1) was 1.6 ± 0.4 nM, the EC50 (HTLV-1 [2]; MT-2-Jurkat cell-to-cell infection, read-out: HTLV-1 EC50) was 0.3 ± 0.173 nM and the EC50 (HTLV-1 [2]; Replicate 1, previously reported values, read-out: HTLV-1 infection EC50) was 0.54 nM. For the same compound, the EC50 (HTLV-1 [2]; Replicate 2, previously reported values, read-out: HTLV-1 infection EC50) was 0.44 nM.

“LEDGF/ΔIBD-B56γ (from UniProt Q13362 11-380)” showed a fold B56γ recovered against WT IN [3] of 2 fold.

“STLV-1 IN(A219E) as assembled into the intasome for cryo-EM (enzyme)” gave a stoichiometry N [4] of 4.
